Source: article PMC3100585 (The Annals of pharmacotherapy, 2010)
“And” between values parts separate entries of the source, which are not always exact repeats. Identical values can stand only once.

Key:
[1] = test system: CYP3A4 protein in HepG2 cells; test: CYP3A4 protein expression by Western blot in HepG2 cells; assay type: cell-based, human; conditions: 48 hours, vinblastine 300 ng/mL and above (range 150-4800 ng/mL)
[2] = molecular target: T1, human NR1I2 (Homo sapiens, UniProt O75469); conditions: HepG2 cells, 24 hours; vinblastine 150-4800 ng/mL; rifampin 10 μM
T1 sequence (O75469 1-434): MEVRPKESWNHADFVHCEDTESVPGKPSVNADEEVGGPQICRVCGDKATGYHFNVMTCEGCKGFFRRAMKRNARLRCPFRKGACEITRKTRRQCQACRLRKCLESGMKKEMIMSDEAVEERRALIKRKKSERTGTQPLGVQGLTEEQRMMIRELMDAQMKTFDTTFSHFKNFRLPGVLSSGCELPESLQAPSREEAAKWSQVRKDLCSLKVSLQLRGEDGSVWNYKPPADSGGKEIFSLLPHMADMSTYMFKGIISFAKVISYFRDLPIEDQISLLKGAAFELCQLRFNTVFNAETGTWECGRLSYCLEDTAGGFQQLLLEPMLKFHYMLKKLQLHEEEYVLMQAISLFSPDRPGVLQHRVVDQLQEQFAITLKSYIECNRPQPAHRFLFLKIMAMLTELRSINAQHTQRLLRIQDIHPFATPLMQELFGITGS

[3] = molecular target: T2, human NR1I3 (Homo sapiens, UniProt Q14994); conditions: NIH3T3 cells, 24 hours; vinblastine 150-4800 ng/mL
T2 sequence (Q14994 1-348 isoform Q14994-2): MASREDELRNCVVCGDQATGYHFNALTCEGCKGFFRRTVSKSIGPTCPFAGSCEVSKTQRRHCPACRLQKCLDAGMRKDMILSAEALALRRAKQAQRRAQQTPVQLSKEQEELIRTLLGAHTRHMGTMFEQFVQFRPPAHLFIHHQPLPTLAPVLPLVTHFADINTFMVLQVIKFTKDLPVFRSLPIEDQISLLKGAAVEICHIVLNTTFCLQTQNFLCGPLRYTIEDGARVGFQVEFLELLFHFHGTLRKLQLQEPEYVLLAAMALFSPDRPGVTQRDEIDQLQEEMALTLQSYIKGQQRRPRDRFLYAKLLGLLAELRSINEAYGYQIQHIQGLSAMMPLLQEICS
T2 sequence (P28700 1-467 partner): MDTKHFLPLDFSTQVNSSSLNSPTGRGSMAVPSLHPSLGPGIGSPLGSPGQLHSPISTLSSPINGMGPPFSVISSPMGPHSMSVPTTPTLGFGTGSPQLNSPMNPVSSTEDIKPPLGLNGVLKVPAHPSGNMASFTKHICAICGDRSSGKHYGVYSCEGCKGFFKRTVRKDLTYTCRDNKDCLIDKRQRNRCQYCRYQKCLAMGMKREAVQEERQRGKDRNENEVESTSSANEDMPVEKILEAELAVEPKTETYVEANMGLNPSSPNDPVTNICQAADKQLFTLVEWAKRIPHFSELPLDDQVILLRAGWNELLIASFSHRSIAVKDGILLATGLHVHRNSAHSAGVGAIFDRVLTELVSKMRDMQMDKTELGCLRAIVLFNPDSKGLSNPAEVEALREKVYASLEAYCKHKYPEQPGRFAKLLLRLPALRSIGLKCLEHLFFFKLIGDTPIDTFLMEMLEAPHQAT

[4] = molecular target: T3, mouse NR1I3 (Mus musculus, UniProt O35627); conditions: NIH3T3 cells, 24 hours; vinblastine 150-4800 ng/mL
T3 sequence (O35627 1-358): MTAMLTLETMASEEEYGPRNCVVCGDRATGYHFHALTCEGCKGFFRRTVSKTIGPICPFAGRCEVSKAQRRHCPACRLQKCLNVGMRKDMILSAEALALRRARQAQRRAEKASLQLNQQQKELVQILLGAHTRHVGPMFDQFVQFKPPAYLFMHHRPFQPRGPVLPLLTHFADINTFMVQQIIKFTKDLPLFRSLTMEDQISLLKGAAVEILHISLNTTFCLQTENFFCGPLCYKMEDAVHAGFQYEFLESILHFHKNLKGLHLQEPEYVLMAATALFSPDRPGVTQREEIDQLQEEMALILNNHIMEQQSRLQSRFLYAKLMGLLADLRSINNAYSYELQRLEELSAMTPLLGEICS

[5] = test system: CYP3A4; conditions: cited from earlier work
[6] = molecular target: T4, mouse NR1I2 (Mus musculus, UniProt O54915); test: Luciferase reporter gene assay, full-length mouse NR1I2; assay type: cell-based; conditions: HepG2 cells, 24 hours; vinblastine 150-4800 ng/mL; PCN 50 μM
T4 sequence (O54915 1-431): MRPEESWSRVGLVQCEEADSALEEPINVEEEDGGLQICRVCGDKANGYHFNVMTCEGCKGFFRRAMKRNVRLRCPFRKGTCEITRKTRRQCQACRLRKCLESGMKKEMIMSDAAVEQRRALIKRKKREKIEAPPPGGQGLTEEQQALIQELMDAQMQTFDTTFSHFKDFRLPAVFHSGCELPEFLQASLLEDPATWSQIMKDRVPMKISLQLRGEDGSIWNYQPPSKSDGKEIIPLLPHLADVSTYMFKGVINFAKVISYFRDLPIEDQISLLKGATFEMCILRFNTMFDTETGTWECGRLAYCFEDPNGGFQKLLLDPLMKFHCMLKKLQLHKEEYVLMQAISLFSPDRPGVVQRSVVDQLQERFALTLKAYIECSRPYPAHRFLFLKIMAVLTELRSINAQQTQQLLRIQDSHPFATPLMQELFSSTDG

[7] = test system: CYP3A4; test: Midazolam pharmacokinetics; conditions: for Midazolam AUC, median (dose normalized): 6 patients; for half-life: human, plasma, intravenous, 0.0145 mg/kg, Half-life of midazolam, median

CC[C@]1(O)C[C@@H]2CN(CCc3c([nH]c4ccccc34)[C@@](C(=O)OC)(c3cc4c(cc3OC)N(C)[C@H]3[C@@](O)(C(=O)OC)[C@H](OC(C)=O)[C@]5(CC)C=CCN6CC[C@]43[C@@H]65)C2)C1 [vinblastine, Vinblastine]
CYP3A4 protein expression compared to DMSO-treated control cells [1]: substantially increased CYP3A4 protein expression

C/C=C/C[C@@H](C)C(=O)[C@H]1C(=O)N[C@@H](C(C)C)C(=O)N(C)CC(=O)N(C)[C@@H](CC(C)C)C(=O)N[C@@H](C(C)C)C(=O)N(C)[C@@H](CC(C)C)C(=O)N[C@@H](C)C(=O)N[C@H](C)C(=O)N(C)[C@@H](CC(C)C)C(=O)N(C)[C@@H](CC(C)C)C(=O)N(C)[C@@H](C(C)C)C(=O)N1C [valspodar]
Increase in transcriptional (reporter) activity of human NR1I2 [2]: Increased activity of the reporter was not observed | Effect on transcriptional activity of human NR1I3 [3]: Increased activity of the reporter was not observed | Effect on transcriptional activity of mouse NR1I3 [4]: Increased activity of the reporter was not observed | CYP3A4 inhibition [5]: very weak CYP3A4 inhibitor | Increase in transcriptional (reporter) activity of mouse NR1I2 [6]: Increased activity of the reporter was not observed

Cc1ncc2n1-c1ccc(Cl)cc1C(c1ccccc1F)=NC2 [midazolam]
Midazolam AUC, median (dose normalized) ([7]; day 1 of cycle 1): 46.4 ng·h/mL per mg | Midazolam AUC, median (dose normalized) ([7]; day 1 of cycle 4, after repeat vinblastine): 31.0 ng·h/mL per mg | half-life ([7]; day 1 of cycle 1): 2.54 h | half-life ([7]; day 1 of cycle 4): 3.08 h | % ↑ Midazolam Cl ([7]; individual patients, cycle 4 vs cycle 1, after repeat vinblastine): 51.7% and 35.9% and 216.7% and 2.5% and 46.9% and 6.9% | Midazolam clearance relative to value prior to treatment with vinblastine ([7]; one patient, midazolam on 5 occasions over 1.3 years, end of period): 3.6 fold
